Test results: patent US20240245607A1, “Microencapsulation of Active Agents” (Temple University-Of The Commonwealth System of Higher …, priority 2016, published 2024)
Structures can show the parent of a compound that is named as a salt. Where two headings read alike, the source gives them in different places.

Columns and labels:
[1] = IR spectra of encapsulated compounds in stearic acid microspheres (degradation); assay type: physicochemical
Experimental: Bitter taste stimuli are prepared in a similar manner, except at a pH of 8.0. Along with stearic acid, SOA is melted at ˜100° C., quinine HCl·7H2O is melted at ˜165° C., quinine HCl·2H2O is melted at 116° C., or n-propylthiouracil (PROP) is melted at ˜150° C. before addition to a rapidly stirred buffer solution. […] The quinine content of microspheres is measured by fluorescence emission or by absorbance in the ultra-violet region. SOA content of microspheres is measured by the anthrone reaction, and PROP and PTC content of microspheres is measured by UV absorption at 275 nm.
After drying, loaded microspheres are dissolved in a solvent such as acetonitrile or acetonitrile/HEPES, and the encapsulated compound is assayed by absorption spectroscopy, fluorescence emission, or infra-red spectroscopy. The melting point is then measured in order to identify the melting point range of the microspheres. If needed, these lipid microspheres could be embedded within pullulan-based films for long term storage. Stearic acid microspheres encapsulate 2,4-D or DCMU (Diuron) at a weight-to-weight ratio of approximately 15:I. In addition, the melting point of lipid microspheres is lowered to 38-40° C. for the controlled release of these compounds from microspheres. The melting temperature range varies from 8 to 10° C.

sweet taste = conditions: cited from earlier work

Row | Compound | degradation of components by IR spectra [1] | also measured
1 | O=[N+]([O-])c1ccc(O)c([N+](=O)[O-])c1 [2,4-dinitrophenol] |  | degradation by IR data ([1]; after encapsulation within stearic acid microspheres): not degraded
2 | CN(C)C(=O)Nc1ccc(Cl)c(Cl)c1 [DCMU, diuron] |  | degradation by IR data [1]: undegraded
3 | CCCc1cc(=O)[nH]c(=S)[nH]1 [PROP, n-propylthiouracil] | no components were graded | 
4 | CC(=O)OC[C@H]1O[C@@](COC(C)=O)(O[C@H]2O[C@H](COC(C)=O)[C@@H](OC(C)=O)[C@H](OC(C)=O)[C@H]2OC(C)=O)[C@@H](OC(C)=O)[C@@H]1OC(C)=O [SOA, sucrose octaacetate] | no components were graded | 
5 | C=C[C@H]1C[N@@]2CC[C@H]1C[C@H]2[C@H](O)c1ccnc2ccc(OC)cc12 [quinine, quinine HCl] | no components were graded | 
6 | OC[C@H]1O[C@H](O[C@]2(CCl)O[C@H](CCl)[C@@H](O)[C@@H]2O)[C@H](O)[C@@H](O)[C@H]1Cl [sucralose] | no components were graded | sweetness compared with sucrose (sweet taste): approximately 600 times
